Data: US5834032A, “Compositions and methods for treating diabetes” (priority 1997, dated 1998)

Tests used:
Type in all cases: in vivo, rat
diabetic rats [1] = test: Blood glucose in diabetic rats administered arachidonic acid and 0.5 mg/kg/day L-histidine (dose optimisation)
Procedure: In the experiment used to produce the results presented in Table 11, the concentration of AA was varied and the L-histidine concentration was held constant. Thus, a range of from 3-30 mg/kg/day of AA provided a therapeutic benefit, with a range of from 10-12 mg/kg/day of AA providing the greatest benefit.

diabetic rats [2] = test: Blood glucose concentration changes (regression slope) during dietary feeding of defined chemical species (Example 2); settings: Table 6
Source text: (§1) Rats were first made diabetic by injection with streptozotocin, and then allowed to stabilize for a period of two weeks. […] After the two week period, the surviving diabetic rats were divided into seven groups and provided either with plain drinking water as a control, or drinking water containing one of six compositions to be tested for their effects on various parameters associated with the diabetic condition. Constituents included in these compositions, in varying combinations, were: zinc (20 mg/L); L-histidine (20 mg/L); arachidonic acid (100 mg/L); testosterone (100 mg/L); and C-Hispro (10 mg/L).
(§2) Diabetic rats receiving one of the six test compositions or control drinking water were monitored for blood glucose concentration, body weight and water consumption over a period of about one month. Values for these parameters were plotted on a graph, and a regression line drawn. […] Thus, if the blood glucose concentration increased substantially steadily over the course of the experiment, the slope of the regression line was reported along with the number of days duration during which the change was monitored.

diabetic rats [3] = test: Water consumption by diabetic rats during administration of chemicals in drinking water (Example 2); settings: Table 8
Source text: as §1, §2

diabetic rats [4] = test: Optimizing the level of C-Hispro intake for improving diabetes (blood glucose); settings: for Mean mg glucose/dL after Tmt / Mean mg glucose/dL before Tmt: 10 mg Zn/L in drinking water; for Changes of mg glucose/dL: 10 mg Zn/L, decrease
Procedure: The results presented in Table 9 were used to determine the optimal concentration of C-Hispro useful for improving the symptoms associated with diabetes. Since rats consuming water containing C-Hispro ad libitum also consumed the lowest water volume as evidenced by the results in Table 8, the optimal concentration of C-Hispro for improving the symptoms of diabetes was determined by providing animals with water containing different concentrations of c-Hispro. The amounts of consumed were determined by measuring the amount of water consumed, dividing this value by the weight of the rat and multiplying the result by the c-Hispro concentration. The amount of C-Hispro intake for the most dramatic improvement of symptoms of diabetes was about 300 μg/kg/day, based on the results presented in Tables 9 and 10. […] Similar ranges of dosages also are expected to be useful for treating diabetic mammals, including humans.

[5] = arachidonic acid 2.02 to 2.39 mg/kg/day, plus 0.5 mg/kg/day L-histidine
[6] = arachidonic acid 3.04 to 3.58 mg/kg/day, plus 0.5 mg/kg/day L-histidine
[7] = arachidonic acid 4.05 to 4.78 mg/kg/day, plus 0.5 mg/kg/day L-histidine
[8] = arachidonic acid 5.06 to 5.97 mg/kg/day, plus 0.5 mg/kg/day L-histidine
[9] = arachidonic acid 10.12 to 11.95 mg/kg/day, plus 0.5 mg/kg/day L-histidine
[10] = arachidonic acid 15.18 to 17.91 mg/kg/day, plus 0.5 mg/kg/day L-histidine
[11] = arachidonic acid 20.24 to 23.88 mg/kg/day, plus 0.5 mg/kg/day L-histidine
[12] = arachidonic acid 25.30 to 29.85 mg/kg/day, plus 0.5 mg/kg/day L-histidine
[13] = arachidonic acid 0 mg/kg/day, 0.5 mg/kg/day L-histidine
[14] = C-Hispro intake 217 to 231 μg/kg, restricted water intake
[15] = C-Hispro intake 281 to 290 μg/kg, unrestricted water intake
[16] = C-Hispro intake 303 to 337 μg/kg, restricted water intake
[17] = C-Hispro intake 386 to 466 μg/kg, unrestricted water intake
[18] = C-Hispro intake 448 to 463 μg/kg, restricted water intake
[19] = C-Hispro intake 452 to 554 μg/kg, unrestricted water intake
[20] = C-Hispro intake 554 to 597 μg/kg, restricted water intake
[21] = C-Hispro intake 569 to 680 μg/kg, unrestricted water intake

SMILES: CCCCC/C=C\C/C=C\C/C=C\C/C=C\CCCC(=O)O [arachidonic acid]
- range of AA providing the greatest benefit (diabetic rats [1]; L-histidine held constant): 10 to 12 mg/kg/day
- range of AA that provided a therapeutic benefit (diabetic rats [1]; L-histidine held constant): 3 to 30 mg/kg/day
- optimal amount of AA for improving the symptoms of diabetes in rats (diabetic rats [1]; L-histidine held constant (0.5 mg/kg/day)): about 10 mg/kg/day
- mg glu/dL Post-Treatment (diabetic rats [1]; [5]): 321 ± 34 mg glu/dL
- mg glu/dL Pre-Treatment (diabetic rats [1]; [5]): 263 ± 48 mg glu/dL
- mg glu/dL improvement (diabetic rats [1]; [5]): -58 ± 16 mg glu/dL
- mg glu/dL Post-Treatment (diabetic rats [1]; [6]): 256 ± 25 mg glu/dL
- mg glu/dL Pre-Treatment (diabetic rats [1]; [6]): 303 ± 23 mg glu/dL
- mg glu/dL improvement (diabetic rats [1]; [6]): 47 ± 26 mg glu/dL
- mg glu/dL Post-Treatment (diabetic rats [1]; [7]): 247 ± 32 mg glu/dL
- mg glu/dL Pre-Treatment (diabetic rats [1]; [7]): 308 ± 17 mg glu/dL
- mg glu/dL improvement (diabetic rats [1]; [7]): 61 ± 43 mg glu/dL
- mg glu/dL Post-Treatment (diabetic rats [1]; [8]): 252 ± 29 mg glu/dL
- mg glu/dL Pre-Treatment (diabetic rats [1]; [8]): 426 ± 56 mg glu/dL
- mg glu/dL improvement (diabetic rats [1]; [8]): 174 ± 53 mg glu/dL
- mg glu/dL Post-Treatment (diabetic rats [1]; [9]): 187 ± 15 mg glu/dL
- mg glu/dL Pre-Treatment (diabetic rats [1]; [9]): 393 ± 23 mg glu/dL
- mg glu/dL improvement (diabetic rats [1]; [9]): 206 ± 25 mg glu/dL
- mg glu/dL Post-Treatment (diabetic rats [1]; [10]): 184 ± 16 mg glu/dL
- mg glu/dL Pre-Treatment (diabetic rats [1]; [10]): 368 ± 25 mg glu/dL
- mg glu/dL improvement (diabetic rats [1]; [10]): 184 ± 30 mg glu/dL
- mg glu/dL Post-Treatment (diabetic rats [1]; [11]): 241 ± 18 mg glu/dL
- mg glu/dL Pre-Treatment (diabetic rats [1]; [11]): 379 ± 25 mg glu/dL
- mg glu/dL improvement (diabetic rats [1]; [11]): 138 ± 33 mg glu/dL
- mg glu/dL Post-Treatment (diabetic rats [1]; [12]): 301 ± 27 mg glu/dL
- mg glu/dL Pre-Treatment (diabetic rats [1]; [12]): 443 ± 52 mg glu/dL
- mg glu/dL improvement (diabetic rats [1]; [12]): 142 ± 66 mg glu/dL

SMILES: N[C@@H](Cc1c[nH]cn1)C(=O)O [L-Histidine, L-histidine]
- effect of L-histidine in the drinking water on diabetes (diabetic rats [1]; 0.5 mg/kg L-histidine): improved diabetes
- mg glu/dL Post-Treatment (diabetic rats [1]; [13]): 304 ± 50 mg glu/dL
- mg glu/dL Pre-Treatment (diabetic rats [1]; [13]): 204 ± 22 mg glu/dL
- mg glu/dL improvement (diabetic rats [1]; arachidonic acid 0 mg/kg/day, 0.5 mg/kg/day L-histidine, negative = increase): -100 ± 62 mg glu/dL

SMILES: C[C@]12CC[C@H]3[C@@H](CCC4=CC(=O)CC[C@@]43C)[C@@H]1CC[C@@H]2O [testosterone]
- benefit of including testosterone in the composition (diabetic rats [2]): no apparent benefit

SMILES: O=C1N[C@@H](Cc2cnc[nH]2)C(=O)N2CCC[C@@H]12 [C-Hispro, cyclo-Hispro]
- water consumption compared to the other groups (diabetic rats [3]): lower than in the other groups tested
- Mean mg glucose/dL after Tmt (diabetic rats [4]; [14]): 213 ± 43 mg glucose/dL
- Mean mg glucose/dL before Tmt (diabetic rats [4]; [14]): 372 ± 33 mg glucose/dL
- Changes of mg glucose/dL (diabetic rats [4]; [14]): 159 ± 45 mg glucose/dL
- Mean mg glucose/dL after Tmt (diabetic rats [4]; [15]): 258 ± 27 mg glucose/dL
- Mean mg glucose/dL before Tmt (diabetic rats [4]; [15]): 373 ± 30 mg glucose/dL
- Changes of mg glucose/dL (diabetic rats [4]; [15]): 115 ± 33 mg glucose/dL
- Mean mg glucose/dL after Tmt (diabetic rats [4]; [16]): 192 ± 28 mg glucose/dL
- Mean mg glucose/dL before Tmt (diabetic rats [4]; [16]): 422 ± 27 mg glucose/dL
- Changes of mg glucose/dL (diabetic rats [4]; [16]): 230 ± 14 mg glucose/dL
- Mean mg glucose/dL after Tmt (diabetic rats [4]; [17]): 353 ± 37 mg glucose/dL
- Mean mg glucose/dL before Tmt (diabetic rats [4]; [17]): 411 ± 22 mg glucose/dL
- Changes of mg glucose/dL (diabetic rats [4]; [17]): 58 ± 47 mg glucose/dL
- Mean mg glucose/dL after Tmt (diabetic rats [4]; [18]): 216 ± 23 mg glucose/dL
- Mean mg glucose/dL before Tmt (diabetic rats [4]; [18]): 342 ± 20 mg glucose/dL
- Changes of mg glucose/dL (diabetic rats [4]; [18]): 126 ± 34 mg glucose/dL
- Mean mg glucose/dL after Tmt (diabetic rats [4]; [19]): 367 ± 47 mg glucose/dL
- Mean mg glucose/dL before Tmt (diabetic rats [4]; [19]): 417 ± 8 mg glucose/dL
- Changes of mg glucose/dL (diabetic rats [4]; [19]): 50 ± 41 mg glucose/dL
- Mean mg glucose/dL after Tmt (diabetic rats [4]; [20]): 221 ± 12 mg glucose/dL
- Mean mg glucose/dL before Tmt (diabetic rats [4]; [20]): 314 ± 24 mg glucose/dL
- Changes of mg glucose/dL (diabetic rats [4]; [20]): 93 ± 32 mg glucose/dL
- Mean mg glucose/dL after Tmt (diabetic rats [4]; [21]): 314 ± 20 mg glucose/dL
- Mean mg glucose/dL before Tmt (diabetic rats [4]; [21]): 359 ± 46 mg glucose/dL
- Changes of mg glucose/dL (diabetic rats [4]; [21]): 45 ± 16 mg glucose/dL
- amount of C-Hispro intake for the most dramatic improvement of symptoms of diabetes (diabetic rats [4]; based on Tables 9 and 10): about 300 μg/kg/day
